“Also recorded” adds a separate entry of the source. Marks after values point to notes of the source that are not given here.
Key:
[1] = system: APP in SH-SY-5Y human neuroblastoma cells; assay: APP in vitro (Western blot) in neuroblastoma cells; assay type: cell-based; settings: SH-SY-5Y cells; 0, 0.1, 1, 5 and 10 μM
[2] = system: patients with mild to moderate AD; assay: Phase II/III dose-ranging study of buntanetap in mild to moderate AD (ADAS-Cog 11); assay type: in vivo, human
Procedure: A randomized, double-blind, placebo-controlled Phase II/III study trial investigating the efficacy, safety, and tolerability of buntanetap in patients with mild to moderate AD was conducted. This was a dose-ranging study where patients received either one of three doses of buntanetap (7.5 mg, 15 mg, or 30 mg) or placebo on top of their standard of care for 12 weeks. In this study, over 700 patients were screened, a total of 353 patients were enrolled, and 325 patients completed the study across 54 sites in the US. The study included mild to moderate AD patients whose Mini Mental State Examination (MMSE) scores at baseline ranged from 14 to 24. (www.clinicaltrials.gov (NCT05686044)).
Beyond safety, the trial assessed the changes in two co-primary endpoints: Alzheimer's Disease Assessment Scale-Cognitive Subscale 11 (ADAS-Cog 11) and Alzheimer's Disease Cooperative Study Clinician's Global Impression of Change (ADCS-CGIC), which assess cognition and activities of daily living. The study monitored for safety and collected plasma to measure several biomarkers to assess the disease state, potential disease progression, and treatment effects.

[3] = system: APP, Tau, and aSYN in the cerebrospinal fluid (CSF) of MCI subjects; settings: cited from earlier work
[4] = system: early AD patients and early PD patients; settings: cited from earlier work
tau = settings: Human tau mice; unpublished observation; cited from earlier work
aSYN = settings: transgenic Parkinson's animals, in the brain and in the gut; cited from earlier work
[5] = system: Ts65dn mouse model of Down syndrome (DS); settings: cited from earlier work
[6] = system: human SNCAA53T tg mouse model of PD; settings: cited from earlier work
Huntingtin Protein = settings: through Translational Suppression; cited from earlier work
[7] = system: APP, Tau, and aSYN in the cerebrospinal fluid (CSF) of MCI subjects; assay: CSF biomarkers in MCI subjects before and after 10 days of buntanetap (proof of mechanism); settings: mildly cognitive impaired patients, 10 days of administration (FIG. 3)

## CN1CC[C@]2(C)c3cc(OC(=O)Nc4ccccc4)ccc3N(C)C12 (stereo partly drawn) [Buntanetap, (3aR)-1,3a,8-trimethyl-1,2,3,3a,8,8a-hexahydropyrrolo[2,3-b]indol-5-yl phenylcarbamate]
[1]
  APP in relation to Actin standard (Western blot): lowers APP in vitro in a dose-dependent manner
[2]; 7.5 mg
  Non-Responders (Number): 5
  Non-Responders (Percentage): (26.32%)
  Responders (Number): 14
  Responders (Percentage): (73.68%)**
[2]; 15 mg
  Non-Responders (Number): 7
  Non-Responders (Percentage): (28.00%)
  Responders (Number): 18
  Responders (Percentage): (72.00%)**
[2]; 30 mg
  Non-Responders (Number): 3
  Non-Responders (Percentage): (12.50%)
  Responders (Number): 21
  Responders (Percentage): (87.50%)***
[2]; 30 mg group
  difference in the proportion of participants who improved relative to placebo: three-fold
[2]; patients with mild AD, 7.5, 15, 30 mg, 12 weeks
  improvement in ADAS-Cog 11 scores in each treatment dose relative to placebo: significantly higher improvement
[2]; population with confirmed early AD (FIG. 2B)
  improvement in cognition: dose-dependent improvement
[3]; MCI subjects, 4×60 mg/day
  levels of APP, Tau, and aSYN in the cerebrospinal fluid (CSF): normalized
[3]; MCI subjects
  CSF A342: trend to lower
  CSF levels of sAPPa, sAPPP, t-tau, p-tau, and specific inflammatory markers: significantly lowered
[3]; human CSF of MCI subjects
  inflammation: lowered
[4]; AD and PD cohorts
  levels of neurotoxic proteins and inflammatory factors (biomarker data): trend in lowering
[4]; AD and PD patients
  axonal and synaptic function: improved
  blood brain barrier crossing: crossed the blood brain barrier
  inflammatory markers: reduced
  neurotoxic protein biomarkers: reduced
[4]; AD patients, 80 mg QD
  ADAS-Cog11 and WAIS coding (psychometric tests): statistically significant improvements
[4]; AD patients, statistical significance versus baseline at 80 mg dose but not placebo
  cognition as measured by ADAS-Cog11 and WAIS coding speed: improved
[4]; PD patients, 5-80 mg QD
  MDS-UPDRS and WAIS coding (psychometric tests): statistically significant improvements
[4]; PD patients, all doses, maximum improvement for 10 & 20 mg
  motor function as measured by MDS-UPDRS (Part II, III, IV and total): improved
[4]; PD patients, significant versus placebo in 5 mg, 20 mg and 80 mg arms
  WAIS speed and accuracy: improved
[4]; doses up to 80 mg in both AD and PD patients
  safety and tolerability: well tolerated
[4]; plasma, without evidence for a plateau up to 80 mg QD
  Cmax and AUC: increased with dose
tau
  tau in vivo: lowers
aSYN
  aSYN in vivo: lowers
[5]
  memory and learning: Restored
[6]
  colonic motility: Restored
Huntingtin Protein
  levels of Huntingtin Protein: reduced
[7]
  APP/Abeta, tau/phospho-tau and alpha-synuclein in the spinal fluid: reduction; also recorded: normalized
